In brackets after ≈: the same amount, converted by molar mass. Peptide text beside a SMILES is read from it.
Tests used:
HEK293T cells = details: 24 h
In short: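 5,000 cells/well seeded a day ahead in DMEM with 10% FBS, then treated with peptides; viability by MTT (0.5 mg/ml, 4 h, 37 °C), formazan in acidic isopropanol read at 570 nm. Concentration causing 50% lysis from non-linear regression; three biological replicates, two technical each.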

[1] = test system: E. faecalis ATCC 700802 (vancomycin-resistant strain); assay type: cell-based, Enterococcus faecalis; details: ATCC 700802, 20 h
Excerpt: The following Gram-negative bacteria were used in our study: A. baumannii ATCC 19606, E. coli ATCC 11775, E. coli AIC221 (E. coli MG1655 phnE_2::FRT), E. coli AIC222 (E. coli MG1655 pmrA53 phnE_2::FRT (colistin resistant)), K. pneumoniae ATCC 13883, P. aeruginosa PAO1 and P. aeruginosa PA14. The following Gram-positive bacteria were also used in our study: S. aureus ATCC 12600, S. aureus ATCC BAA-1556 (methicillin-resistant strain), E. faecalis ATCC 700802 (vancomycin-resistant strain) and E. faecium ATCC 700221 (vancomycin-resistant strain). Bacteria were grown from frozen stocks and plated on Luria–Bertani (LB) or Pseudomonas isolation agar plates (P. aeruginosa strains) and incubated overnight at 37 °C. After the incubation period, a single colony was transferred to 5 ml of LB medium, and cultures were incubated overnight (16 h) at 37 °C. The following day, an inoculum was prepared by diluting the overnight cultures 1:100 in 5 ml of the respective media and incubating them at 37 °C until bacteria reached logarithmic phase (OD600 = 0.3–0.5).
The in vitro antimicrobial activity of the peptides was assessed by using the broth microdilution assay. […] Aqueous solutions of the peptides were added to the plate at concentrations ranging from 1 to 64 μmol l^−1. […] The optical density of the plates was measured at 600 nm using a spectrophotometer. […]

[2] = test system: 11 clinically relevant bacterial pathogens; assay type: cell-based; details: Supplementary Dataset 2; against the 11 pathogens tested
In short: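 Broth microdilution with peptides at 1 to 64 μmol l^−1. Inocula came from overnight LB cultures diluted 1:100 and grown at 37 °C to log phase (OD600 = 0.3–0.5); growth read by OD600, three biological replicates.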

## CC[C@H](C)[C@H](NC(=O)[C@H](CCCCN)NC(=O)[C@H](CC(C)C)NC(=O)[C@H](CCC(N)=O)NC(=O)[C@H](Cc1ccccc1)NC(=O)[C@@H](NC(=O)[C@@H](NC(=O)[C@H](Cc1ccccc1)NC(=O)[C@H](CC(C)C)NC(=O)[C@@H](NC(=O)[C@@H](N)CC(C)C)[C@@H](C)O)[C@@H](C)CC)[C@@H](C)CC)C(=O)N[C@@H](CO)C(=O)N[C@@H](CCCCN)C(=O)N[C@@H](CC(C)C)C(=O)O [Paleopropin-1] (H-LTLFIIFQLKISKL-OH; N-terminus and C-terminus assumed)
HEK293T cells
  CC50: > 128 µM
  TI (therapeutic index): > 4
[1]
  Minimal inhibitory concentration, E. faecalis ATCC700802-VRE: 16 µM (≈ 26.8 µg/mL)
[2]
  Active or Inactive: Active

From PMC11310081, “Deep-learning-enabled antibiotic discovery through molecular de-extinction” (Nature Biomedical Engineering, 2024)
